#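 Method: 48-hour compound exposure of cells in 96-well plates, five concentrations, linear interpolation of endpoints. GI50: concentration for 50% inhibition of growth.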 The source made the active and inactive calls. No stated cut-off is given here; in the data, active = GI50 up to about 1.1 µM and inactive = higher.
# Legend:
# Test in all cases: NCI tumour cell line growth inhibition, 48 h
# NCI/ADR-RES = test system: NCI/ADR-RES
# SF-295 = test system: SF-295
# SR = test system: SR
# HCT-15 = test system: HCT-15
# COLO 205 = test system: COLO 205
# PC-3 = test system: PC-3
# MDA-MB-231 = test system: MDA-MB-231
# MCF7 = test system: MCF7
# Hs-578T = test system: Hs-578T
# MDA-N = test system: MDA-N
# K562 = test system: K562
# MOLT-4 = test system: MOLT-4
# T47D = test system: T47D
# UACC-257 = test system: UACC-257
# BT-549 = test system: BT-549
# HOP-92 = test system: HOP-92
# SNB-78 = test system: SNB-78
# DMS-114 = test system: DMS-114
# M19-MEL = test system: M19-MEL
# XF498 = test system: XF498
Structure (SMILES),GI50 (NCI/ADR-RES),GI50 (SF-295),GI50 (SR),GI50 (HCT-15),GI50 (COLO 205),GI50 (PC-3),GI50 (MDA-MB-231),GI50 (MCF7),GI50 (Hs-578T),GI50 (MDA-N),GI50 (K562),GI50 (MOLT-4),GI50 (T47D),GI50 (UACC-257),GI50 (BT-549),GI50 (HOP-92),GI50 (SNB-78),GI50 (DMS-114),GI50 (M19-MEL),GI50 (XF498)
CN(CCO)CCC1COc2ccccc2O1 (stereo not given),> 10 µM (inactive),> 10 µM (inactive),> 10 µM (inactive),> 10 µM,> 10 µM (inactive),> 10 µM (inactive),> 10 µM (inactive),> 10 µM (inactive),> 10 µM (inactive),> 10 µM (inactive),> 10 µM (inactive),> 10 µM (inactive),> 10 µM (inactive),,,,,,,
N#C/C(=C\c1ccc(Br)cc1)c1nc(-c2cc3ccccc3oc2=O)cs1,11.9 µM (inactive),18.5 µM (inactive),34 µM (inactive),32.1 µM,> 50 µM (inactive),21 µM (inactive),10.1 µM (inactive),18.4 µM (inactive),11.5 µM (inactive),17.7 µM (inactive),37.2 µM (inactive),> 50 µM (inactive),22.7 µM (inactive),11.7 µM (inactive),7.29 µM (inactive),11 µM (inactive),,,,
COc1cc(C2c3[nH]c4ccccc4c3[C@@H](Nc3ccc(F)cc3)[C@H]3COC(=O)N23)cc(OC)c1O (stereo not given in full),8.13 µM (inactive),0.794 µM (active),,1.66 µM,,1.91 µM (inactive),3.44 µM (inactive),0.622 µM (active),0.0962 µM (active),2.3 µM (inactive),1.45 µM (inactive),0.287 µM (active),2.25 µM (inactive),3.77 µM (inactive),1.36 µM (inactive),2.26 µM (inactive),,,,
O=C1C[C@@H](C(=O)OCc2ccccc2)NC(=O)C[C@@H](C(=O)OCc2ccccc2)NC(=O)C[C@@H](C(=O)OCc2ccccc2)N1,> 100 µM (inactive),20 µM (inactive),4.06 µM (inactive),> 100 µM,> 100 µM (inactive),> 100 µM (inactive),14 µM (inactive),> 100 µM (inactive),13.1 µM (inactive),> 100 µM (inactive),4.16 µM (inactive),4.15 µM (inactive),> 100 µM (inactive),> 100 µM (inactive),> 100 µM (inactive),20.7 µM (inactive),,,,
CCCC(=O)OC[n+]1ccc2c(C)c3[nH]c4ccc(OC)cc4c3c(C)c2c1,,0.581 µM (active),0.0486 µM (active),0.288 µM,0.427 µM (active),,,,,,,0.0289 µM (active),,2.08 µM (inactive),,1.16 µM (inactive),0.594 µM (active),0.47 µM (active),0.555 µM (active),
CC(C)(C)[Si](C)(C)OCC1CCC(n2cnc3c(N)ncnc32)O1 (stereo not given),,81.8 µM (inactive),> 10 µM (inactive),72.1 µM,> 100 µM (inactive),28.2 µM (inactive),54.1 µM (inactive),,72.1 µM (inactive),47.1 µM (inactive),3.45 µM (inactive),14.7 µM (inactive),27.2 µM (inactive),33.7 µM (inactive),27 µM (inactive),> 100 µM (inactive),,,,
COc1ccc(-c2cc(C(O)C3CCCCN3)c3ccccc3n2)cc1 (stereo not given),16.7 µM (inactive),14.7 µM (inactive),0.394 µM (active),14.2 µM,1.89 µM (inactive),5.08 µM (inactive),2.36 µM (inactive),3.87 µM (inactive),14.3 µM (inactive),4.92 µM (inactive),2.54 µM (inactive),3.59 µM (inactive),4 µM (inactive),2.15 µM (inactive),15.9 µM (inactive),2.86 µM (inactive),,,,
CC1=C2C(=C[C@H]3[C@]4(C)CCCC(C)(C)[C@H]4CC[C@]34O[C@H]24)OC1=O,> 100 µM (inactive),> 100 µM (inactive),,> 100 µM,> 100 µM (inactive),> 100 µM (inactive),> 100 µM (inactive),> 100 µM (inactive),,> 100 µM (inactive),> 100 µM (inactive),> 100 µM (inactive),,> 100 µM (inactive),> 100 µM (inactive),> 100 µM (inactive),,,,
O=C(O)/C=C/c1c[nH]cn1,> 500 µM (inactive),> 500 µM (inactive),,,> 500 µM (inactive),,,> 500 µM (inactive),,,> 500 µM (inactive),> 500 µM (inactive),,> 500 µM (inactive),,> 500 µM (inactive),,> 500 µM (inactive),> 500 µM (inactive),> 500 µM (inactive)
CC1(C)N=C(N)N=C(N)N1c1ccc(Cl)cc1,> 100 µM (inactive),3.33 µM (inactive),1.36 µM (inactive),7.11 µM,7.06 µM (inactive),1.88 µM (inactive),21.7 µM (inactive),15.6 µM (inactive),> 100 µM (inactive),1.51 µM (inactive),0.317 µM (active),1.71 µM (inactive),35.1 µM (inactive),26.5 µM (inactive),26.2 µM (inactive),24.1 µM (inactive),,,,
CCOP(=O)(OCC)/C(C#N)=C/c1cccn1Cc1ccccc1,26.2 µM (inactive),29.6 µM (inactive),31.3 µM (inactive),29 µM,21.5 µM (inactive),31.9 µM (inactive),22.4 µM (inactive),29.5 µM (inactive),,29.9 µM (inactive),28.2 µM (inactive),17.2 µM (inactive),16.9 µM (inactive),39.5 µM (inactive),32.3 µM (inactive),13.5 µM (inactive),,,,
COc1ccc([I+]c2ccc(OC)cc2)cc1,> 100 µM (inactive),30 µM (inactive),> 50.5 µM (inactive),> 22.2 µM,60.5 µM (inactive),> 60 µM (inactive),> 100 µM (inactive),46.7 µM (inactive),> 100 µM (inactive),,21.1 µM (inactive),> 100 µM (inactive),> 95.7 µM (inactive),11.6 µM (inactive),,> 100 µM (inactive),,,,
Brc1ccc(C2CC(c3cccc4ccccc34)=Nc3ccccc3S2)cc1 (stereo not given),,37.3 µM (inactive),27.5 µM (inactive),35.3 µM,> 100 µM (inactive),,,,,,26.2 µM (inactive),23.5 µM (inactive),,> 100 µM (inactive),,> 100 µM (inactive),82 µM (inactive),,40.2 µM (inactive),> 100 µM (inactive)
Cc1nnc2sc(N/N=C/c3ccccc3)nn12,> 100 µM (inactive),> 100 µM (inactive),,> 100 µM,> 100 µM (inactive),> 100 µM (inactive),> 100 µM (inactive),> 100 µM (inactive),> 100 µM (inactive),> 100 µM (inactive),> 100 µM (inactive),> 100 µM (inactive),> 100 µM (inactive),> 100 µM (inactive),> 100 µM (inactive),,,,,
CC(NNC(=O)c1cc[n+]([BH2-]C#N)cc1)c1ccc(F)cc1 (stereo not given),> 100 µM (inactive),> 100 µM (inactive),> 100 µM (inactive),> 100 µM,> 100 µM (inactive),> 100 µM (inactive),> 100 µM (inactive),> 100 µM (inactive),> 100 µM (inactive),> 100 µM (inactive),> 100 µM (inactive),> 100 µM (inactive),> 100 µM (inactive),> 100 µM (inactive),> 100 µM (inactive),> 100 µM (inactive),,,,
Clc1ncc(C(Cl)(Cl)Cl)nc1-c1ccccc1,4.07 µM (inactive),3.63 µM (inactive),3.85 µM (inactive),1.21 µM,1.87 µM (inactive),1.78 µM (inactive),1.97 µM (inactive),1.68 µM (inactive),2.82 µM (inactive),1.87 µM (inactive),2.46 µM (inactive),4.75 µM (inactive),1.96 µM (inactive),2.14 µM (inactive),1.65 µM (inactive),1.99 µM (inactive),,,,
N#CSCC1COc2ccccc2O1 (stereo not given),> 10 µM (inactive),> 10 µM (inactive),2.58 µM (inactive),9.89 µM,> 10 µM (inactive),> 10 µM (inactive),> 10 µM (inactive),> 10 µM (inactive),> 10 µM (inactive),> 10 µM (inactive),1.77 µM (inactive),3.3 µM (inactive),> 10 µM (inactive),,,,,,,
CCOc1cc(C2CC(c3ccc(NS(=O)(=O)c4cc([N+](=O)[O-])ccc4C)cc3)=NN2S(=O)(=O)c2cc([N+](=O)[O-])ccc2C)ccc1O (stereo not given),39.4 µM (inactive),31.9 µM (inactive),32.4 µM (inactive),39 µM,37.4 µM (inactive),32.7 µM (inactive),32.1 µM (inactive),31.9 µM (inactive),42.4 µM (inactive),43.3 µM (inactive),35.1 µM (inactive),30.4 µM (inactive),19.8 µM (inactive),32.7 µM (inactive),39.4 µM (inactive),17.5 µM (inactive),,,,
COc1ccc(-c2nnc3c4ccccc4sn23)cc1,,,16.6 µM (inactive),6.28 µM,42.4 µM (inactive),,,,,,16.6 µM (inactive),15.3 µM (inactive),,20 µM (inactive),,34.9 µM (inactive),41.9 µM (inactive),17.1 µM (inactive),22.5 µM (inactive),
CC1(C)CNC(=O)C2(/C=N/C(C)(C)CNC(=O)C3(/C=N/1)CCCO3)CCCO2 (stereo not given),> 10 µM (inactive),> 10 µM (inactive),> 10 µM (inactive),> 10 µM,> 10 µM (inactive),> 10 µM (inactive),> 10 µM (inactive),> 10 µM (inactive),> 10 µM (inactive),> 10 µM (inactive),> 10 µM (inactive),> 10 µM (inactive),> 10 µM (inactive),> 10 µM (inactive),> 10 µM (inactive),> 10 µM (inactive),,,,
